Source: ChEMBL document CHEMBL5380791, “Modular Biomimetic Strategy Enabled Discovery of Simplified Pseudo-Natural Macrocyclic P-Glycoprotein Inhibitors Capable of Overcoming Multidrug Resistance” (J Med Chem, 2023)
The source made the active and inactive calls. The calls are words filed in the database; no cut-off is given here.

Key:
KBv200 [1] = assay: Antitumor activity against human KBv200 cells xenografted in Balb/cA nude mouse assessed as tumor growth inhibition at 50 mg/kg, ip qd administered for 13 days; assay type: functional; conditions: KBv200, 312 h, time 13 day
OVCAR-8 = assay: Reversal of vinorelbine resistance in human OVCAR-8 cells assessed as reduction in cell viability incubated for 72 hrs in presence of vinorelbine (reference value: 16.2+/-4.7 nM); assay type: functional, cell-based; conditions: OVCAR-8, 72 h
KBv200 [2] = assay: Reversal of vinorelbine resistance in human KBv200 cells assessed as reduction in cell viability incubated for 72 hrs in presence of vinorelbine (reference value: 224 to 228.30 nM); assay type: functional, cell-based; conditions: KBv200, 72 h, read-out: IC50
[3] = Toxicity in Balb/cA nude mouse xenografted with human KBv200 cells assessed as changes in body weight at 25 mg/kg, ip qd administered for 13 days in presence of vinorelbine; assay type: organism-based; conditions: in vivo, 312 h, time 13 day
KBv200 [4] = assay: Antitumor activity against human KBv200 cells xenografted in Balb/cA nude mouse assessed as mean tumor volume at 50 mg/kg, ip qd administered for 13 days in presence of vinorelbine; assay type: functional; conditions: time 13 day
KBv200 [5] = assay: Reversal of paclitaxel resistance in human KBv200 cells assessed as reduction in cell viability incubated for 72 hrs in presence of paclitaxel (reference value: 392.9+/-196.5 nM); assay type: functional, cell-based; conditions: KBv200, 72 h
KBv200 [6] = assay: Antitumor activity against human KBv200 cells xenografted in Balb/cA nude mouse assessed as mean tumor volume at 50 mg/kg, ip administered as single dose and measured on day 0 in presence of vinorelbine; assay type: functional
KBv200 [7] = assay: Reversal fold, ratio of vinorelbine IC50 for cytotoxicity against human KBv200 cells over test compound IC50 for reversal of vinorelbine resistance in human KBv200 cells; assay type: functional
KB = assay: Reversal of vinorelbine resistance in human KB cells assessed as reduction in cell viability incubated for 72 hrs in presence of vinorelbine (reference value: 7.4+/-2.2 nM); assay type: functional, cell-based
KBv200 [8] = assay: Antitumor activity against human KBv200 cells xenografted in Balb/cA nude mouse assessed as tumor growth inhibition at 50 mg/kg, ip qd administered for 13 days in presence of vinorelbine; assay type: functional; conditions: KBv200, 312 h, time 13 day
[9] = AUCinf in CD-1 mouse at 30 mg/kg, po; assay type: ADME, organism-based; design: dose 30 mg/kg, route po; conditions: in vivo
[10] = Half life in CD-1 mouse at 3 mg/kg, iv; assay type: ADME, organism-based; conditions: in vivo
K562/Adr = assay: Reversal of vinorelbine resistance in human K562/Adr cells assessed as reduction in cell viability incubated for 72 hrs in presence of vinorelbine (reference value: 7320.6+/-2115.2 nM); assay type: functional, cell-based
[11] = Toxicity in Balb/cA nude mouse xenografted with human KBv200 cells assessed as mortality at 50 mg/kg, ip qd administered for 13 days in presence of vinorelbine; assay type: organism-based; conditions: in vivo, 312 h, time 13 day
[12] = Cytotoxicity against human HEK293T cells assessed as reduction in cell viability incubated for 48 hrs by CCK-8 assay; assay type: toxicity, cell-based, HEK-293T
[13] = AUCinf in CD-1 mouse at 3 mg/kg, iv; assay type: ADME, organism-based; design: dose 3 mg/kg, route iv; conditions: in vivo
[14] = AUClast in CD-1 mouse at 30 mg/kg, po; assay type: ADME, organism-based; design: dose 30 mg/kg, route po; conditions: in vivo
[15] = molecular target: ATP-dependent translocase ABCB1 (Homo sapiens, UniProt P08183); assay: Inhibition of P-gp in human KBv200 cells assessed as induction of conformation change by measuring increase in UIC-2 binding level at 50 uM incubated for 10 mins by UIC-2 reactivity shift assay; assay type: cell-based; conditions: kbv200, 10 min
Sequence of ATP-dependent translocase ABCB1 (P08183 whole entry): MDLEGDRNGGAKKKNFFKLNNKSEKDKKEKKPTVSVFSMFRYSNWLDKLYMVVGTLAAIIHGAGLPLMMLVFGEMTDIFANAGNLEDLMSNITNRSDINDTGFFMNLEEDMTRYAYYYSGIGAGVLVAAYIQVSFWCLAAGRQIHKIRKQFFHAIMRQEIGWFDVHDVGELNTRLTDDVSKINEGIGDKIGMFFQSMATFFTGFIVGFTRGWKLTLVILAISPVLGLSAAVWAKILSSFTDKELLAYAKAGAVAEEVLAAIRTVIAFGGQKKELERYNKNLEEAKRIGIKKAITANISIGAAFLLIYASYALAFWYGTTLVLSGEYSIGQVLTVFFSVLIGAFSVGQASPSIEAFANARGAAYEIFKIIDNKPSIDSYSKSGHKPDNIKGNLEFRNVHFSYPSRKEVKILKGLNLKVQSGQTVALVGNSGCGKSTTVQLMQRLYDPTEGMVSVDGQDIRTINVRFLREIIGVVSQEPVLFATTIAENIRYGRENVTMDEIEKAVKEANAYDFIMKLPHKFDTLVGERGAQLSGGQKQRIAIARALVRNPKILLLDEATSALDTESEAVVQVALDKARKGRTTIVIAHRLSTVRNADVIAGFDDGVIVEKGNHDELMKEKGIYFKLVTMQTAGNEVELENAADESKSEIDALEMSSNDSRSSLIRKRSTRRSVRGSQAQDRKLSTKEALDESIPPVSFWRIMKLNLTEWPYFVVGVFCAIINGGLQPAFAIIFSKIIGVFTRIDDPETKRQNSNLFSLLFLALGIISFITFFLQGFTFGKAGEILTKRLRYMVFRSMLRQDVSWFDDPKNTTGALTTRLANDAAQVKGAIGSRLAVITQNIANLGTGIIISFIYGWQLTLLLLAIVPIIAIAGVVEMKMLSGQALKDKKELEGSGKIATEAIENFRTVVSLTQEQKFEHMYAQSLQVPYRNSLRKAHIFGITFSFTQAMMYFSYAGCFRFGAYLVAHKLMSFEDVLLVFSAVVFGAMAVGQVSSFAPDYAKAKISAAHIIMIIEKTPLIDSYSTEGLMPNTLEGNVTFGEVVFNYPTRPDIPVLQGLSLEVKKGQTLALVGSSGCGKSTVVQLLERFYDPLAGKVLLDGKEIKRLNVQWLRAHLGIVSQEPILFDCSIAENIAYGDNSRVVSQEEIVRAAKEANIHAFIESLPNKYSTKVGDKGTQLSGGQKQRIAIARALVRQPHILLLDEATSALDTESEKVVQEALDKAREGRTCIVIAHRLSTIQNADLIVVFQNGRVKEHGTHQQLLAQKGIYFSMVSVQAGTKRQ

KBv200 [16] = assay: Antitumor activity against human KBv200 cells xenografted in Balb/cA nude mouse assessed as T/C ratio at 25 mg/kg, ip qd administered for 13 days in presence of vinorelbine; assay type: functional; conditions: time 13 day
KBv200 [17] = assay: Antitumor activity against human KBv200 cells xenografted in Balb/cA nude mouse assessed as mean tumor volume at 50 mg/kg, ip qd administered for 13 days; assay type: functional; conditions: time 13 day
[18] = Clearance in CD-1 mouse at 3 mg/kg, iv; assay type: ADME, organism-based; conditions: in vivo
[19] = Oral bioavailability in CD-1 mouse at 30 mg/kg; assay type: ADME, organism-based; conditions: in vivo
KBv200 [20] = assay: Downregulation of P-gp mRNA expression level in human KBV200 cells by qRT-PCR analysis; assay type: functional, cell-based
KBv200 [21] = assay: Antitumor activity against human KBv200 cells xenografted in Balb/cA nude mouse assessed as mean tumor volume at 25 mg/kg, ip administered as single dose and measured on day 0 in presence of vinorelbine; assay type: functional
[22] = Tmax in CD-1 mouse at 25 mg/kg, ip; assay type: ADME, organism-based; conditions: in vivo
[23] = Bioavailability in CD-1 mouse at 25 mg/kg, ip; assay type: ADME, organism-based; conditions: in vivo
[24] = Toxicity in Balb/cA nude mouse xenografted with human KBv200 cells assessed as mortality at 25 mg/kg, ip qd administered for 13 days in presence of vinorelbine; assay type: organism-based; conditions: in vivo, 312 h, time 13 day
KBv200 [25] = assay: Antitumor activity against human KBv200 cells xenografted in Balb/cA nude mouse assessed as T/C ratio at 50 mg/kg, ip qd administered for 13 days in presence of vinorelbine; assay type: functional; conditions: time 13 day
KBv200 [26] = assay: Reversal of adriamycin resistance in human KBv200 cells assessed as reduction in cell viability incubated for 72 hrs in presence of adriamycin (reference value: 1291.2+/-308.9 nM); assay type: functional, cell-based; conditions: KBv200, 72 h
NCI/ADR-RES = assay: Reversal of vinorelbine resistance in human NCI/ADR-RES cells assessed as reduction in cell viability incubated for 72 hrs in presence of vinorelbine (reference value: 6125.7+/-3267.7 nM); assay type: functional, cell-based
[27] = Cytotoxicity against human L02 cells assessed as reduction in cell viability incubated for 48 hrs by CCK-8 assay; assay type: toxicity, cell-based
KBv200 [28] = assay: Antitumor activity against human KBv200 cells xenografted in Balb/cA nude mouse assessed as tumor growth inhibition at 25 mg/kg, ip qd administered for 13 days in presence of vinorelbine; assay type: functional; conditions: KBv200, 312 h, time 13 day
[29] = AUClast in CD-1 mouse at 25 mg/kg, ip; assay type: ADME, organism-based; design: dose 25 mg/kg, route ip; conditions: in vivo
KBv200 [30] = assay: Antitumor activity against human KBv200 cells xenografted in Balb/cA nude mouse assessed as T/C ratio at 50 mg/kg, ip qd administered for 13 days; assay type: functional; conditions: time 13 day
[31] = Half life in CD-1 mouse at 25 mg/kg, ip; assay type: ADME, organism-based; conditions: in vivo
[32] = Toxicity in Balb/cA nude mouse xenografted with human KBv200 cells assessed as changes in body weight at 50 mg/kg, ip qd administered for 13 days in presence of vinorelbine; assay type: organism-based; conditions: in vivo, 312 h, time 13 day
[33] = AUCinf in CD-1 mouse at 25 mg/kg, ip; assay type: ADME, organism-based; design: dose 25 mg/kg, route ip; conditions: in vivo
[34] = Toxicity in Balb/cA nude mouse xenografted with human KBv200 cells assessed as changes in body weight at 50 mg/kg, ip qd administered for 13 days; assay type: organism-based; conditions: in vivo, 312 h, time 13 day
[35] = Cmax in CD-1 mouse at 30 mg/kg, po; assay type: ADME, organism-based; design: dose 30 mg/kg, route po; conditions: in vivo
KBv200 [36] = assay: Antitumor activity against human KBv200 cells xenografted in Balb/cA nude mouse assessed as mean tumor volume at 25 mg/kg, ip qd administered for 13 days in presence of vinorelbine; assay type: functional; conditions: time 13 day
[37] = AUClast in CD-1 mouse at 3 mg/kg, iv; assay type: ADME, organism-based; design: dose 3 mg/kg, route iv; conditions: in vivo
[38] = Cmax in CD-1 mouse at 25 mg/kg, ip; assay type: ADME, organism-based; design: dose 25 mg/kg, route ip; conditions: in vivo
K562 = assay: Reversal of vinorelbine resistance in human K562 cells assessed as reduction in cell viability incubated for 72 hrs in presence of vinorelbine (reference value: 5.9+/-0.2 nM); assay type: functional, cell-based; conditions: K562, 72 h
[39] = Tmax in CD-1 mouse at 30 mg/kg, po; assay type: ADME, organism-based; conditions: in vivo
KBv200 [40] = assay: Antitumor activity against human KBv200 cells xenografted in Balb/cA nude mouse assessed as mean tumor volume at 50 mg/kg, ip administered as single dose and measured on day 0; assay type: functional
[41] = Toxicity in Balb/cA nude mouse xenografted with human KBv200 cells assessed as mortality at 50 mg/kg, ip qd administered for 13 days; assay type: organism-based; conditions: in vivo, 312 h, time 13 day
[42] = Half life in CD-1 mouse at 30 mg/kg, po; assay type: ADME, organism-based; conditions: in vivo

## O=C1CCCCCCCCCCCNC(=O)[C@@H](Cc2ccccc2)NC(=O)/C(c2cccc3ccccc23)=C\C=C(\c2ccccc2)CN1
KBv200 [1]
  inhibition in vivo at 50 mg/kg: 19%
OVCAR-8
  IC50: 4.6 nM
KBv200 [2]
  IC50: 0.02 nM
[3]
  Activity: Non-Toxic
KBv200 [4]
  Activity: 1059.5 mm3
KBv200 [5]
  IC50: 0.9 nM
KBv200 [6]
  Activity: 121.6 mm3
KBv200 [7]
  Ratio IC50: 432
KB
  IC50: 0.7 nM
KBv200 [8]
  inhibition in vivo at 50 mg/kg: 52%
[9]
  AUC(0-inf): 9490 ng·h/mL
[10]
  half-life: 2.08 h
K562/Adr
  IC50: 75.9 nM
[11]
  Activity: Non-Toxic
[12]
  IC50 at 48 h: > 100000 nM
[13]
  AUC(0-inf): 4350 ng·h/mL
[14]
  AUC(0-t): 9470 ng·h/mL
[15]
  Activity: Active
KBv200 [16]
  T/C: 65%
KBv200 [17]
  Activity: 1703.9 mm3
[18]
  clearance: 11.9 mL/min/kg
[19]
  bioavailability: 21.9%
KBv200 [20]
  Activity: inactive
KBv200 [21]
  Activity: 122 mm3
[22]
  Tmax: 2.67 h
[23]
  bioavailability: 47.3%
[24]
  Activity: Non-Toxic
KBv200 [25]
  T/C: 48%
KBv200 [26]
  IC50: 37.5 nM
NCI/ADR-RES
  IC50: 116 nM
[27]
  IC50 at 48 h: > 100000 nM
KBv200 [28]
  inhibition in vivo at 25 mg/kg: 35%
[29]
  AUC(0-t): 17000 ng·h/mL
KBv200 [30]
  T/C: 113%
[31]
  half-life: 11.9 h
[32]
  Activity: Non-Toxic
[33]
  AUC(0-inf): 20600 ng·h/mL
[34]
  Activity: Non-Toxic
[35]
  Cmax: 2670 ng/mL
KBv200 [36]
  Activity: 1384 mm3
[37]
  AUC(0-t): 4320 ng·h/mL
[38]
  Cmax: 1930 ng/mL
K562
  IC50: 0.8 nM
[39]
  Tmax: 3 h
KBv200 [40]
  Activity: 119.8 mm3
[41]
  Activity: Non-Toxic
[42]
  half-life: 2.56 h
